According to the supplement of paper PMC9938120:

Columns and labels:
Experiment in all cases: drug sensitivity score (DSS3, normalised partial AUC of % inhibition dose-response) (DSS (score)); higher = more sensitive (stronger inhibition of viability); extreme values may be limits of the assay
FMOC25_2 = patient-derived low-grade serous ovarian cancer cells; details: 72 h; library: FO5A; assay format: 2D, 384-well, CellTiter-Glo
Summary of the method: (§1)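 Early-passage (under 10) patient-derived ovarian cancer cells were dispensed onto 384-well flat clear-bottom plates pre-plated with compounds at five concentrations spanning a 10,000-fold range, then incubated 72 h at 37 °C, 5% CO2. Viability was read with CellTiter-Glo, and the data were processed in Breeze. The drug sensitivity score is a partial area under the percent-inhibition dose-response curve divided by the log of the upper asymptote, with higher values meaning greater sensitivity.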

FMOC11 = patient-derived high-grade serous ovarian cancer cells; details: 72 h; library: FO5A; assay format: 2D, 384-well, CellTiter-Glo
Summary of the method: as §1

FMOC06 = patient-derived mucinous ovarian cancer cells; details: 72 h; library: FO5A; assay format: 2D, 384-well, CellTiter-Glo
Summary of the method: as §1

FMOC02_2 = patient-derived low-grade serous ovarian cancer cells; details: 72 h; library: FO5A; assay format: 2D, 384-well, CellTiter-Glo
Summary of the method: as §1

FMOC22 = patient-derived mucinous ovarian cancer cells; details: 72 h; library: FO5A; assay format: 2D, 384-well, CellTiter-Glo
Summary of the method: as §1

FMOC17 = patient-derived low-grade serous ovarian cancer cells; details: 72 h; library: FO5A; assay format: 2D, 384-well, CellTiter-Glo
Summary of the method: as §1

FMOC02_3 = patient-derived low-grade serous ovarian cancer cells; details: 72 h; library: FO5A; assay format: 2D, 384-well, CellTiter-Glo
Summary of the method: as §1

FMOC09 = patient-derived high-grade serous ovarian cancer cells; details: 72 h; library: FO5A; assay format: 2D, 384-well, CellTiter-Glo
Summary of the method: as §1

FMOC24 = patient-derived high-grade serous ovarian cancer cells; details: 72 h; library: FO5A; assay format: 2D, 384-well, CellTiter-Glo
Summary of the method: as §1

FMOC04 = patient-derived high-grade serous ovarian cancer cells; details: 72 h; library: FO5A; assay format: 2D, 384-well, CellTiter-Glo
Summary of the method: as §1

FMOC03 = patient-derived mucinous ovarian cancer cells; details: 72 h; library: FO5A; assay format: 2D, 384-well, CellTiter-Glo
Summary of the method: as §1

FMOC14 = patient-derived high-grade serous ovarian cancer cells; details: 72 h; library: FO5A; assay format: 2D, 384-well, CellTiter-Glo
Summary of the method: as §1

FMOC27 = patient-derived low-grade serous ovarian cancer cells; details: 72 h; library: FO5A; assay format: 2D, 384-well, CellTiter-Glo
Summary of the method: as §1

FMOC25_1 = patient-derived low-grade serous ovarian cancer cells; details: 72 h; library: FO4B; assay format: 2D, 384-well, CellTiter-Glo
Summary of the method: as §1

FMOC02_1 = patient-derived low-grade serous ovarian cancer cells; details: 72 h; library: FO5A; assay format: 2D, 384-well, CellTiter-Glo
Summary of the method: as §1

FMOC28 = patient-derived low-grade serous ovarian cancer cells; details: 72 h; library: FO5A; assay format: 2D, 384-well, CellTiter-Glo
Summary of the method: as §1

Row | Structure (SMILES) | drug sensitivity score (FMOC25_2) | drug sensitivity score (FMOC11) | drug sensitivity score (FMOC06) | drug sensitivity score (FMOC02_2) | drug sensitivity score (FMOC22) | drug sensitivity score (FMOC17) | drug sensitivity score (FMOC02_3) | drug sensitivity score (FMOC09) | drug sensitivity score (FMOC24) | drug sensitivity score (FMOC04) | drug sensitivity score (FMOC03) | drug sensitivity score (FMOC14) | drug sensitivity score (FMOC27) | drug sensitivity score (FMOC25_1) | drug sensitivity score (FMOC02_1) | drug sensitivity score (FMOC28)
1 | c1cc(CN2CCCNCCNCCCNCC2)ccc1CN1CCCNCCNCCCNCC1 [Plerixafor] | 0 | 0 | 0 | 0 | 0 | 0 | 0 | 0 | 0 | 0 | 0 | 0 | 0 | 0 | 0 | 0
2 | CNC(=O)c1ccc2cc([C@@]3(O)CCn4cncc43)ccc2c1 [Orteronel] | 1.4 | 0 | 0 | 0 | 0 | 0 | 0 | 0 | 0 | 0 | 0 | 0 | 0 | 0 | 0 | 0.2
3 | Cc1ccc(-n2nc(C(C)(C)C)cc2NC(=O)Nc2ccc(OCCN3CCOCC3)c3ccccc23)cc1 [Doramapimod] | 0.1 | 2.4 | 0 | 0 | 0.3 | 0.4 | 0 | 0.8 | 1.85 | 0 | 0 | 0 | 0.1 | 0.8 | 0.1 | 7.1
4 | O=C(Nc1nc2cccc(-c3ccc(CN4CCS(=O)(=O)CC4)cc3)n2n1)C1CC1 [Filgotinib] | 3.9 | 0 | 1.3 | 2.9 | 0 | 3.3 | 6.1 | 0.4 | 3.1 | 0 | 0 | 0 | 5 | 1.9 | 2.6 | 5.2
5 | C/C(=C\c1csc(C)n1)[C@@H]1C[C@@H]2O[C@]2(C)CCC[C@H](C)[C@H](O)[C@@H](C)C(=O)C(C)(C)[C@@H](O)CC(=O)N1 [Ixabepilone] | 2.5 | 3.1 | 2.7 | 1.7 | 2.3 | 4.4 | 2.6 | 1.7 | 0 | 1.85 | 3 | 0 | 0.9 | 1.1 | 4.1 | 0
6 | COC(=O)N[C@@H](C)CNc1nccc(-c2cn(C(C)C)nc2-c2cc(Cl)cc(NS(C)(=O)=O)c2F)n1 [Encorafenib] | 3.3 | 0 | 0 | 0 | 0 | 0 | 0.9 | 0 | 0 | 0 | 0 | 0 | 0 | 0.2 | 4.2 | 0
7 | O[C@H]1CC[C@H](Nc2ncc3nc(Nc4c(F)cc(F)cc4F)n([C@H]4CCOC4)c3n2)CC1 [Tanzisertib] | 0 | 0 | 0 | 1.6 | 0.1 | 0.8 | 1.1 | 0 | 1.45 | 0 | 0 | 0 | 0.1 | 0 | 2.3 | 0
8 | Cc1cccc(-c2[nH]c(CNc3ccccc3F)nc2-c2ccc3ncnn3c2)n1 [TEW-7197] | 0 | 0.4 | 3.9 | 1.8 | 0 | 0 | 0.1 | 0 | 0.85 | 0 | 0 | 0 | 0.2 | 0 | 0 | 0
9 | CNC(=O)c1cc(COc2nnc(Nc3ccc(Cl)cc3)c3ccoc23)ccn1 [Telatinib] | 0 | 0 | 0 | 1.7 | 0 | 2.5 | 0 | 0 | 0.4 | 0.05 | 0 | 0 | 0 | 0 | 1.2 | 0
10 | Cc1c(F)cc(C(=O)NC2CC2)cc1-c1ccc(C(=O)NCC(C)(C)C)cn1 [Losmapimod] | 0 | 1.4 | 1 | 0 | 0 | 0 | 0 | 0 | 0 | 0 | 0 | 0 | 0 | 0 | 0.1 | 0
11 | CNCc1ccc(-c2[nH]c3cc(F)cc4c3c2CCNC4=O)cc1 [Rucaparib] | 2.4 | 0 | 0 | 2.1 | 0 | 3.6 | 3.1 | 0 | 12.9 | 0 | 0 | 0.3 | 1.7 | 0.5 | 2.1 | 1.9
12 | C=C1C[C@@H]2[C@H](CC[C@]3(C)C(=O)CC[C@@H]23)[C@@]2(C)C=CC(=O)C=C12 [Exemestane] | 0 | 0 | 0.4 | 0 | 0 | 0 | 0 | 0 | 0.35 | 0 | 0 | 0 | 0 | 0 | 0 | 0
